# Test results as given in patent US20240287065A1, “COMPOUND AS CDK KINASE INHIBITOR AND USE THEREOF” (TYK MEDICINES (ZHENGZHOU) , INC., priority 2021, published 2024).
# Biological target: CDK6/CycD1 (Homo sapiens, UniProt Q00534)
# Assay: Enzyme activity test
# Format: biochemical
# Settings: not given
# Protocol: (§1) • 1. The test compounds and pabocinib were configured into a […] solution of DMSO; • 2. 20 nL of stock solution was transferred to a 384-well plate using Echo550. DMSO was used as a blank control.
# (§2) • 1. according to the following table to prepare 1.3X enzyme solution containing enzyme, substrate and cofactor; • 2. 15 μL of 1.3X enzyme solution was added to each well and the mixture was incubated for 30 min at room temperature; • 3. 5 μL of ATP solution was added to initiate the reaction. The final volume of each well was 20 μL; • 4. After incubation for 150 min at room temperature, 75 μL of termination buffer solution was added to terminate the experiment; • 5. The samples were analyzed using EZ reader.
# (§3) The % inhibition was calculated using the following equation
# (§4) The one treated with DMSO is the positive control (PC)
# (§5) The one without enzyme is the negative control (NC)
# (§6) % Inhibition=100-100*((CRPC−CRsample)/(CRPC−CRNC))
# Sequence of CDK6/CycD1 (Q00534 whole entry, species assumed): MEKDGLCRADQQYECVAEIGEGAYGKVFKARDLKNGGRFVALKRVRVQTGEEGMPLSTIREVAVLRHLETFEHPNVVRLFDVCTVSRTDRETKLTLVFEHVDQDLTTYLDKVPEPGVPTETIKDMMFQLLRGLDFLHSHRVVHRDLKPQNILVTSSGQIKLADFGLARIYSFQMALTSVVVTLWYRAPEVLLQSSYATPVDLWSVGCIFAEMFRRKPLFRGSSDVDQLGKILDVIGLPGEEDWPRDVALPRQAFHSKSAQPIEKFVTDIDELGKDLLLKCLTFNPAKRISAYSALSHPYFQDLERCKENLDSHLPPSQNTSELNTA
# Sequence of CDK6/CycD1 (P24385 whole entry partner, species assumed): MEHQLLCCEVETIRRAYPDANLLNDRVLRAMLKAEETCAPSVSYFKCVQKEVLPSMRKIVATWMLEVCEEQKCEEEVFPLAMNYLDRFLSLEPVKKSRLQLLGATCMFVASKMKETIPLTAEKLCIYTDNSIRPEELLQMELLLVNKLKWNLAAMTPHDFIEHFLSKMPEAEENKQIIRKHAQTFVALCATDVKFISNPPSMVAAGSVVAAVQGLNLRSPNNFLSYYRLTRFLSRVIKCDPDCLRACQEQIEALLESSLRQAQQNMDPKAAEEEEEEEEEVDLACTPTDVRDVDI
row,SMILES,IC50
1,COc1ccc(S(=O)(=O)N2CCC(Nc3ncc4cc(OC(F)F)c(=O)n([C@@H]5CCC[C@@]5(C)O)c4n3)CC2)cc1 [Example 24],< 10 nM
2,CC(C)(C)c1ccc(S(=O)(=O)N2CCC(Nc3ncc4cc(OC(F)F)c(=O)n([C@@H]5CCC[C@@]5(C)O)c4n3)CC2)cc1 [Example 23],10 to 100 nM
3,Cc1ccc(S(=O)(=O)N2CCC(Nc3ncc4cc(OC(F)F)c(=O)n([C@@H]5CCC[C@@]5(C)O)c4n3)CC2)cc1 [Example 8],< 10 nM
4,CCCc1ccc(S(=O)(=O)N2CCC(Nc3ncc4cc(OC(F)F)c(=O)n([C@@H]5CCC[C@@]5(C)O)c4n3)CC2)cc1 [Example 28],< 10 nM
5,COc1ccccc1S(=O)(=O)N1CCC(Nc2ncc3cc(OC(F)F)c(=O)n([C@@H]4CCC[C@@]4(C)O)c3n2)CC1 [Example 14],< 10 nM

# Biological target: CDK2/CycE1 (Homo sapiens, UniProt P24941)
# Assay: Enzyme activity test
# Format: biochemical
# Settings: not given
# Protocol: as §1, §2, §3, §4, §5, §6
row,SMILES,IC50
1,COc1ccc(S(=O)(=O)N2CCC(Nc3ncc4cc(OC(F)F)c(=O)n([C@@H]5CCC[C@@]5(C)O)c4n3)CC2)cc1 [Example 24],< 10 nM
2,CC(C)(C)c1ccc(S(=O)(=O)N2CCC(Nc3ncc4cc(OC(F)F)c(=O)n([C@@H]5CCC[C@@]5(C)O)c4n3)CC2)cc1 [Example 23],< 10 nM
3,Cc1ccc(S(=O)(=O)N2CCC(Nc3ncc4cc(OC(F)F)c(=O)n([C@@H]5CCC[C@@]5(C)O)c4n3)CC2)cc1 [Example 8],< 10 nM
4,CCCc1ccc(S(=O)(=O)N2CCC(Nc3ncc4cc(OC(F)F)c(=O)n([C@@H]5CCC[C@@]5(C)O)c4n3)CC2)cc1 [Example 28],< 10 nM
5,COc1ccccc1S(=O)(=O)N1CCC(Nc2ncc3cc(OC(F)F)c(=O)n([C@@H]4CCC[C@@]4(C)O)c3n2)CC1 [Example 14],< 10 nM

# Biological target: CDK4/CycD3 (Homo sapiens, UniProt P11802)
# Assay: Enzyme activity test
# Format: biochemical
# Settings: not given
# Protocol: as §1, §2, §3, §4, §5, §6
# Sequence of CDK4/CycD3 (P11802 whole entry, species assumed): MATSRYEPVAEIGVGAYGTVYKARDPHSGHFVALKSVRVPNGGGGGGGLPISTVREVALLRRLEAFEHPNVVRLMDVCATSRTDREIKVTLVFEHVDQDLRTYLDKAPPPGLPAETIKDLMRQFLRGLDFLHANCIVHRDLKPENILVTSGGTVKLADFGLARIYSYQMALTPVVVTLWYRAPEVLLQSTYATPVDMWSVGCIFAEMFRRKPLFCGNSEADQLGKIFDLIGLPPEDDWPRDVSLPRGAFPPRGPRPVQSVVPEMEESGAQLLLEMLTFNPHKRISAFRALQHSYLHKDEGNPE
# Sequence of CDK4/CycD3 (P30281 whole entry partner, species assumed): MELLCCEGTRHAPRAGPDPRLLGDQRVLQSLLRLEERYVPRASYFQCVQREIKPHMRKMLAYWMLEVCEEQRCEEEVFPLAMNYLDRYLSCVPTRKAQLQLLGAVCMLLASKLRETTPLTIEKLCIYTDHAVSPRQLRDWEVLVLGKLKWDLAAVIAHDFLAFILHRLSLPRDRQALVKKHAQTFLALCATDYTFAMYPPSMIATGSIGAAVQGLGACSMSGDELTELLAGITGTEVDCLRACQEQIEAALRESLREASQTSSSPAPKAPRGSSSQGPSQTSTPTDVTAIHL
row,SMILES,IC50
1,COc1ccc(S(=O)(=O)N2CCC(Nc3ncc4cc(OC(F)F)c(=O)n([C@@H]5CCC[C@@]5(C)O)c4n3)CC2)cc1 [Example 24],< 10 nM
2,CC(C)(C)c1ccc(S(=O)(=O)N2CCC(Nc3ncc4cc(OC(F)F)c(=O)n([C@@H]5CCC[C@@]5(C)O)c4n3)CC2)cc1 [Example 23],10 to 100 nM
3,Cc1ccc(S(=O)(=O)N2CCC(Nc3ncc4cc(OC(F)F)c(=O)n([C@@H]5CCC[C@@]5(C)O)c4n3)CC2)cc1 [Example 8],10 to 100 nM
4,CCCc1ccc(S(=O)(=O)N2CCC(Nc3ncc4cc(OC(F)F)c(=O)n([C@@H]5CCC[C@@]5(C)O)c4n3)CC2)cc1 [Example 28],10 to 100 nM
5,COc1ccccc1S(=O)(=O)N1CCC(Nc2ncc3cc(OC(F)F)c(=O)n([C@@H]4CCC[C@@]4(C)O)c3n2)CC1 [Example 14],10 to 100 nM

# System: OVCAR3 cells
# Assay: Cell proliferation inhibition assay (MTT, 7 days)
# Format: cell-based
# Settings: Homo sapiens, OVCAR-3, 168 h, 7 days incubation
# Protocol: (§7) MCF7, T47D, OVCAR3 and HCC1806 cells were inoculated in 96-well plates at 3000, 3000, 2500, and 2000 cells/well, respectively, and cultured overnight at 37° C., 5% C02 incubator.
# (§8) 1. […] Then 2.5 μl of the stock solution was dissolved in 497.5 μl of DMSO-free medium, and then a 3-fold serial gradient dilution was performed with 0.1% DMSO medium for a total of 9 concentrations, and the concentrations of the compounds after dilution were as follows: • 10000 nM, 3333.33 nM, 1111.11 nM, 370.34 nM, 123.45 nM, 41.15 nM, 13.72 nM, 4.57 nM, and 1.52 nM. • b) After fully mixing, 20 μL of compound solutions were added into cell culture plates containing 80 μL of cells respectively, with 4 replicate wells for each concentration. • c) The cells were transferred to an incubator and incubated for 7 days, and exchanged with fresh culture medium containing the same concentration of compounds when incubated to day 4. 2. MTT assay • a) The cell culture plate was taken out and 10 μL of 5 mg/ml MTT was added to the hood. • b) The cell culture plate was put back into the incubator and continued to incubate for 3 hours. • c) The cell culture plate was taken out to remove the culture medium, and 100 μL of isopropanol (0.4 mMHCl, 0.4% NP40) was added to the plate, and the plate was shaken on a shaker at room temperature for 30 minutes and read at 570 nm. 3. Data analysis
# (§9) The survival rate (% Cell Survival) was calculated using the following equation:
# (§10) % Cell Survival=100%×(OD_Sample−OD_LCave)/(OD_HC−OD_LCave) • OD_HC: 0.1‰ cell readings of DMSO control • OD_Sample: cell readings of compound addition • OD_LC: readings of blank medium • Analyed by Prizm: Dose-response-Inhibition Log(inhibitor) vs response (three parameters for the best fit)
# (§11) IC50 (nM) values were calculated by concentration-response curve fitting.
row,SMILES,IC50
1,COc1ccc(S(=O)(=O)N2CCC(Nc3ncc4cc(OC(F)F)c(=O)n([C@@H]5CCC[C@@]5(C)O)c4n3)CC2)cc1 [Example 24],≤ 50 nM
2,CC(C)(C)c1ccc(S(=O)(=O)N2CCC(Nc3ncc4cc(OC(F)F)c(=O)n([C@@H]5CCC[C@@]5(C)O)c4n3)CC2)cc1 [Example 23],50 to 5200 nM
3,Cc1ccc(S(=O)(=O)N2CCC(Nc3ncc4cc(OC(F)F)c(=O)n([C@@H]5CCC[C@@]5(C)O)c4n3)CC2)cc1 [Example 8],≤ 50 nM
4,CCCc1ccc(S(=O)(=O)N2CCC(Nc3ncc4cc(OC(F)F)c(=O)n([C@@H]5CCC[C@@]5(C)O)c4n3)CC2)cc1 [Example 28],50 to 5200 nM
5,COc1ccccc1S(=O)(=O)N1CCC(Nc2ncc3cc(OC(F)F)c(=O)n([C@@H]4CCC[C@@]4(C)O)c3n2)CC1 [Example 14],50 to 5200 nM

# System: T47D cells
# Assay: Cell proliferation inhibition assay (MTT, 7 days)
# Format: cell-based
# Settings: Homo sapiens, 168 h, 7 days incubation
# Protocol: as §7, §8, §9, §10, §11
row,SMILES,IC50
1,COc1ccc(S(=O)(=O)N2CCC(Nc3ncc4cc(OC(F)F)c(=O)n([C@@H]5CCC[C@@]5(C)O)c4n3)CC2)cc1 [Example 24],≤ 50 nM
2,CC(C)(C)c1ccc(S(=O)(=O)N2CCC(Nc3ncc4cc(OC(F)F)c(=O)n([C@@H]5CCC[C@@]5(C)O)c4n3)CC2)cc1 [Example 23],50 to 5200 nM
3,Cc1ccc(S(=O)(=O)N2CCC(Nc3ncc4cc(OC(F)F)c(=O)n([C@@H]5CCC[C@@]5(C)O)c4n3)CC2)cc1 [Example 8],≤ 50 nM
4,CCCc1ccc(S(=O)(=O)N2CCC(Nc3ncc4cc(OC(F)F)c(=O)n([C@@H]5CCC[C@@]5(C)O)c4n3)CC2)cc1 [Example 28],50 to 5200 nM
5,COc1ccccc1S(=O)(=O)N1CCC(Nc2ncc3cc(OC(F)F)c(=O)n([C@@H]4CCC[C@@]4(C)O)c3n2)CC1 [Example 14],≤ 50 nM

# System: MCF7 cells
# Assay: Cell proliferation inhibition assay (MTT, 7 days)
# Format: cell-based
# Settings: Homo sapiens, 168 h, 7 days incubation
# Protocol: as §7, §8, §9, §10, §11
row,SMILES,IC50
1,COc1ccc(S(=O)(=O)N2CCC(Nc3ncc4cc(OC(F)F)c(=O)n([C@@H]5CCC[C@@]5(C)O)c4n3)CC2)cc1 [Example 24],≤ 50 nM
2,CC(C)(C)c1ccc(S(=O)(=O)N2CCC(Nc3ncc4cc(OC(F)F)c(=O)n([C@@H]5CCC[C@@]5(C)O)c4n3)CC2)cc1 [Example 23],50 to 5200 nM
3,Cc1ccc(S(=O)(=O)N2CCC(Nc3ncc4cc(OC(F)F)c(=O)n([C@@H]5CCC[C@@]5(C)O)c4n3)CC2)cc1 [Example 8],50 to 5200 nM
4,CCCc1ccc(S(=O)(=O)N2CCC(Nc3ncc4cc(OC(F)F)c(=O)n([C@@H]5CCC[C@@]5(C)O)c4n3)CC2)cc1 [Example 28],50 to 5200 nM
5,COc1ccccc1S(=O)(=O)N1CCC(Nc2ncc3cc(OC(F)F)c(=O)n([C@@H]4CCC[C@@]4(C)O)c3n2)CC1 [Example 14],50 to 5200 nM

# System: HCC1806 cells
# Assay: Cell proliferation inhibition assay (MTT, 7 days)
# Format: cell-based
# Settings: Homo sapiens, HCC1806, 168 h, HCC1086 [sic], 7 days incubation
# Protocol: as §7, §8, §9, §10, §11
row,SMILES,IC50
1,COc1ccc(S(=O)(=O)N2CCC(Nc3ncc4cc(OC(F)F)c(=O)n([C@@H]5CCC[C@@]5(C)O)c4n3)CC2)cc1 [Example 24],≤ 50 nM
2,CC(C)(C)c1ccc(S(=O)(=O)N2CCC(Nc3ncc4cc(OC(F)F)c(=O)n([C@@H]5CCC[C@@]5(C)O)c4n3)CC2)cc1 [Example 23],200 to 51000 nM
3,Cc1ccc(S(=O)(=O)N2CCC(Nc3ncc4cc(OC(F)F)c(=O)n([C@@H]5CCC[C@@]5(C)O)c4n3)CC2)cc1 [Example 8],50 to 5200 nM
4,CCCc1ccc(S(=O)(=O)N2CCC(Nc3ncc4cc(OC(F)F)c(=O)n([C@@H]5CCC[C@@]5(C)O)c4n3)CC2)cc1 [Example 28],200 to 51000 nM
5,COc1ccccc1S(=O)(=O)N1CCC(Nc2ncc3cc(OC(F)F)c(=O)n([C@@H]4CCC[C@@]4(C)O)c3n2)CC1 [Example 14],50 to 5200 nM
